In test [1] the test system is RhoA. The test is classed as cell-based.
In test [2] the test system is Rap1. It counts as cell-based, monkey.
Test [3] concerns RhoA. The test is classed as cell-based, monkey.
The subject of test [4] is polarized endothelial cells. The test can be described thus: Cell barrier function and viral infection in polarized endothelial cells. It counts as cell-based. To be noted: unpublished results.
Test [5] addresses T1, Rac1 (Homo sapiens, UniProt P63000).
T1 construct: endogenous in cells; host or cells: HeLa (ATCC)
Briefly: G-trap assay validation, active Rac1 in HeLa cells. It counts as cell-based. To be noted: calpeptin-mediated activation of RhoA.

The values that follow come from patent publication US10962541B2 (priority 2014, dated 2021).

Where only a bound is given, the exact number is not on record here.

For the compound `COc1ccc(C2CC(c3ccccc3)=NN2c2ccc(S(N)(=O)=O)cc2)cc1` (stereo not shown) [CID2950007], the RhoA activity entry in test [1] is reported as “no effect on RhoA activity”.

On to `COC(=O)[C@H](CCSC)NC(=O)c1ccc(NC[C@@H](N)CS)cc1-c1ccccc1` [FTI277], for which, in test [2], the “increase in active Rap1” value was ~2 fold.

As to `CCN(CC)CCCC(C)Nc1nc(C)cc(Nc2ccc3nc(C)cc(N)c3c2)n1` (stereo not shown) [NSC23766], in test [3], the “RhoA-GTP above EGF stimulation alone” value worked out at 1.3 fold and the “RhoA-GTP increase above basal levels” value turned out to be 2 fold. In test [1], the RhoA activity result is given as “elevated relative to resting cells” and the “activation of RhoA relative to resting cells” value is listed as > 5 fold.

As for `C[C@@H](N)[C@H]1CC[C@H](C(=O)Nc2ccncc2)CC1` [Y27632], in test [4], the “loss of cell barrier function” value is “blocks the loss of cell barrier function” and the viral infection result is “limits viral infection”.

On to `CCCC[C@@H](C=O)NC(=O)[C@H](CC(C)C)NC(=O)OCc1ccccc1` [calpeptin], for which the “increase in active RhoA” value in test [3] was > 2 fold. Also, the Rac1 activity result in test [5] is recorded as “concomitant decrease in Rac1 activity”.
